Data taken from US11286268B1, “EIF4E-inhibiting compounds and methods” (EFFECTOR THERAPEUTICS, INC., priority 2019, dated 2022).
Where two headings read alike, the source gives them in different places.

Biological target: recombinant eIF4E (Homo sapiens (Human), UniProt P06730)
Assay: Fluorescence polarization competition assay for eIF4E binding potency
In short: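 Competition of test compound against 20 nM EDA-m^7GDP-ATTO-550 for 75 nM recombinant eIF4E, pre-incubated 5 min, in 20 mM Tris pH 7.5, 100 mM NaCl, 1 mM DTT, 0.02% Tween-20, 1% DMSO. Equilibrated 30 min at room temperature, dark; fluorescence polarization read. IC50 from 8-point, 3-fold dilution series.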

[1] = inhibition of eIF4E/EDA-m7GDP-ATTO-550 binding, calculated IC50 values, Table 4B, read-out: IC50
[2] = fluorescence polarization competition, 75 nM recombinant eIF4E, 20 nM EDA-m7GDP-ATTO-550, IC50 class, read-out: elF4E FP
[3] = inhibition of eIF4E/EDA-m7GDP-ATTO-550 binding by 50%, Table 4B calculated values, read-out: IC50

Chain of recombinant eIF4E (P06730 whole entry): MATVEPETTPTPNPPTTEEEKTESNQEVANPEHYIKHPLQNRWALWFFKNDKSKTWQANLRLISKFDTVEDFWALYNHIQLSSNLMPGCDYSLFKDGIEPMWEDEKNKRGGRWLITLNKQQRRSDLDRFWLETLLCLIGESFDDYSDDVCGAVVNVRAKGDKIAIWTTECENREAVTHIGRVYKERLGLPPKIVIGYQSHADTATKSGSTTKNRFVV

## Cc1nc2cnc(N3CCN(CCC(F)(F)F)CC3)c(C#N)c2c(=O)n1CC#Cc1ccc(Cl)cc1-c1ccnc2c(C(=O)O)csc12 [compound 1353]
[1]
  IC50: 17.2 nM

## Cc1nc2cnc(N3CCC4(CC3)CN(CC(C)(F)F)C4)c(C#N)c2c(=O)n1CC#Cc1ccc(Cl)cc1-c1ccnc2c(C(=O)NS(=O)(=O)c3cccnc3)csc12 [compound 1412]
[1]
  IC50: 6.71 nM

## Cc1cc(-c2cc(Cl)ccc2OCCn2c(C)nc3cc(C(F)(F)F)c(CN4CCN(CC(F)F)CC4)c(C#N)c3c2=O)c2scc(C(=O)O)c2n1 [compound 739]
[2]
  IC50: < 50 nM
[3]
  IC50: 30.8 nM

## Cc1nc2cnc(N(C)C34CCC(N(C)CCF)(CC3)C4)c(C#N)c2c(=O)n1CC#Cc1ccc(Cl)cc1-c1ccnc2c(C(=O)O)csc12 [compound 1106]
[2]
  IC50: < 50 nM
[3]
  IC50: 17.4 nM

## Cc1nc2cc(C#N)cc(C#N)c2c(=O)n1C/C=C/c1ccc(Cl)cc1-c1ccnc2c(C(=O)O)csc12 [compound 286]
[2]
  IC50: 50 to 1000 nM
[3]
  IC50: 183 nM

## N#Cc1cccc2nc(C(F)F)n(CCOc3ccc(Cl)cc3-c3ccnc4c(C(=O)O)scc34)c(=O)c12 [compound 2035]
[1]
  IC50: 72.3 nM

## Cc1nc2cnc(N(C)[C@H]3CC[C@H](N(CC(F)F)C(C)CO)CC3)c(C#N)c2c(=O)n1CC#Cc1ccc(Cl)cc1-c1ccnc2c(C(=O)O)csc12 (stereo partly drawn) [compound 1579]
[1]
  IC50: 30.3 nM

## Cc1nc2cnc(N3CCN(C)C(C(F)(F)F)C3)c(C#N)c2c(=O)n1CCOc1ccc(Cl)cc1-c1ccnc2c(C(=O)O)csc12 (stereo not drawn) [compound 1334]
[1]
  IC50: 51.3 nM

## Cc1nc2cnc(N3CCN(CC(F)(F)Cl)CC3)c(C#N)c2c(=O)n1CCOc1ccc(Cl)cc1-c1ccnc2c(C(=O)O)csc12 [compound 1474]
[1]
  IC50: 13.8 nM

## Cc1nc2cnc(N(C)C3CCN(C4COC4)CC3)c(C#N)c2c(=O)n1CC#Cc1ccc(Cl)cc1-c1ccnc2c(C(=O)NS(C)(=O)=O)csc12 [compound 1561]
[1]
  IC50: 13 nM

## Cc1nc2cnc(N(C)[C@H]3CC[C@H](CN(C)CC(C)(F)F)CC3)c(C#N)c2c(=O)n1CC#Cc1ccc(Cl)cc1-c1ccnc2c(C(=O)O)csc12 [compound 1583]
[1]
  IC50: 58.2 nM

## Cc1nc2cnc(N3CC4(CNC4)C3)c(C#N)c2c(=O)n1CC#Cc1ccc(Cl)cc1-c1ccnc2c(C(=O)O)csc12 [compound 1633]
[1]
  IC50: 52.6 nM

## Cc1nc2cc(C(F)(F)F)c(CN3CCN(C)CC3)c(C#N)c2c(=O)n1CCOc1ccc(Cl)cc1-c1cc(CF)nc2c(C(=O)O)csc12 [compound 645]
[2]
  IC50: < 50 nM
[3]
  IC50: 31.3 nM

## Cc1nc2cc(C#N)c(CN(C)C)c(C#N)c2c(=O)n1CCOc1ccc(Cl)cc1-c1ccnc2c(C(=O)O)csc12 [compound 510]
[2]
  IC50: 50 to 1000 nM
[3]
  IC50: 50.5 nM

## Cc1cc(-c2cc(Cl)ccc2OCCn2c(C)nc3cnc(NN(C)C)c(C#N)c3c2=O)c2scc(C(=O)O)c2n1 [compound 979]
[2]
  IC50: < 50 nM
[3]
  IC50: 9.48 nM

## Cc1nc2cc(C(F)(F)F)cc(C#N)c2c(=O)n1CCOc1ccc(Cl)cc1-c1ccnc2c1CCC2C(=O)O (stereo not drawn) [compound 496]
[2]
  IC50: > 1000 nM
[3]
  IC50: 1060 nM

## COc1cc(-c2cc(Cl)ccc2OCCn2cnc3cnc(C#N)cc3c2=O)cc(C(=O)O)c1OC [compound 107]
[2]
  IC50: > 1000 nM
[3]
  IC50: 3820 nM

## Cc1nc2cnc(N(C)C3CCN(C4CC(F)(F)C4)CC3)c(C#N)c2c(=O)n1CC#Cc1ccc(Cl)cc1-c1ccnc2c(C(=O)NS(=O)(=O)CF)csc12 [compound 1817]
[1]
  IC50: 25.8 nM

## Cc1cc(-c2cc(Cl)ccc2OCCn2c(C)nc3cc(C(F)(F)F)c(N4CC(F)(F)C4)c(C#N)c3c2=O)c2scc(C(=O)O)c2n1 [compound 687]
[2]
  IC50: < 50 nM
[3]
  IC50: 13.5 nM

## Cc1cc(-c2cc(Cl)ccc2OCCn2c(C)nc3cc(Cl)c(C4CCC4)c(C#N)c3c2=O)c2scc(C(=O)O)c2n1 [compound 1047]
[2]
  IC50: < 50 nM
[3]
  IC50: 21.2 nM

## Cc1cc(-c2cc(Cl)ccc2C#CCn2c(C)nc3cc(C(F)(F)F)c(N4CCN(C)CC4)c(C#N)c3c2=O)c2scc(C(=O)O)c2n1 [compound 1213]
[2]
  IC50: < 50 nM
[1]
  IC50: 42.7 nM

## Cc1nc2c(N(C)C3CC4CCC(C3)N4C)ncc(C#N)c2c(=O)n1CCOc1ccc(Cl)cc1-c1ccnc2c(C(=O)O)csc12 (stereo not drawn) [compound 863]
[2]
  IC50: < 50 nM
[3]
  IC50: 45.5 nM

## Cc1cnc(C)c(-c2c(C(F)(F)F)cc3nc(C)n(CCOc4ccc(Cl)cc4-c4cc(C)nc5c(C(=O)O)csc45)c(=O)c3c2C#N)n1 [compound 968]
[2]
  IC50: < 50 nM
[3]
  IC50: 8.95 nM

## Cc1nc2cnc(N(C)C3CCN(C4CC(F)(F)C4)CC3)c(C#N)c2c(=O)n1CC#Cc1ccc(Cl)cc1-c1ccnc2c(C(=O)NS(C)(=O)=O)csc12 [compound 1589]
[1]
  IC50: 12.4 nM

## Cc1cc(-c2cc(Cl)ccc2OCCn2c(C)nc3ccc(OC(C)C)c(C#N)c3c2=O)c2scc(C(=O)O)c2n1 [compound 371]
[2]
  IC50: < 50 nM
[3]
  IC50: 20 nM

## N#Cc1cccc2nc(C(F)F)n(CCOc3ccc(Cl)cc3-c3ccnc4c(C(=O)O)csc34)c(=O)c12 [compound 143]
[2]
  IC50: < 50 nM
[3]
  IC50: 16.7 nM

## Cc1cc(-c2cc(Cl)ccc2OCCn2c(C)nc3cc(C(F)(F)F)c(-c4cnccc4F)c(C#N)c3c2=O)c2scc(C(=O)O)c2n1 [compound 343]
[2]
  IC50: < 50 nM
[3]
  IC50: 41.8 nM

## Cc1nc2cc(C(F)(F)F)cc(C#N)c2c(=O)n1CCOc1cnc(Cl)nc1-c1ccnc2c(C(=O)O)csc12 [compound 454]
[2]
  IC50: 50 to 1000 nM
[3]
  IC50: 51.1 nM

## Cc1cc(-c2cc(Cl)ccc2OCCn2c(C)nc3cnc(-c4cccc(Cl)c4)c(C#N)c3c2=O)c2scc(C(=O)O)c2n1 [compound 948]
[2]
  IC50: < 50 nM
[3]
  IC50: 18.3 nM

## Cc1cc(-c2cc(Cl)ccc2OCCn2c(C)nc3cc(C(F)(F)F)c(-c4ccccn4)c(C#N)c3c2=O)c2scc(C(=O)O)c2n1 [compound 631]
[2]
  IC50: < 50 nM
[3]
  IC50: 3.41 nM

## Cc1nc2ccc(C(F)F)c(C#N)c2c(=O)n1CCOc1ccc(Cl)cc1-c1cccc(C(=O)O)c1 [compound 62]
[2]
  IC50: < 50 nM
[3]
  IC50: 24.9 nM

## Cc1nc2cc(C(F)(F)F)cc(S)c2c(=O)n1CCOc1ccc(Cl)cc1-c1ccnc2c(C(=O)O)csc12 [compound 221]
[2]
  IC50: 50 to 1000 nM
[3]
  IC50: 113 nM

## CCc1cc(-c2cc(Cl)ccc2OCCn2c(C)nc3cc(C(F)(F)F)c(-c4cccnc4)c(C#N)c3c2=O)c2scc(C(=O)O)c2n1 [compound 1013]
[2]
  IC50: < 50 nM
[3]
  IC50: 18.5 nM

## Cc1nc2cc(Cl)c3c(cnn3C)c2c(=O)n1CCOc1ccc(Cl)cc1-c1ccnc2c(C(=O)O)csc12 [compound 720]
[2]
  IC50: 50 to 1000 nM
[3]
  IC50: 199 nM

## O=C(O)c1cccc(-c2cc(Cl)ccc2OCCn2ccc3ccccc3c2=O)c1 [compound 9]
[2]
  IC50: > 1000 nM
[3]
  IC50: > 30000 nM

## Cc1nc2cnc(N(C)C3CCN(CC(C)(C)F)CC3)c(C#N)c2c(=O)n1CCOc1ccc(Cl)cc1-c1ccnc2c(C(=O)O)csc12 [compound 1655]
[1]
  IC50: 13.4 nM

## COC(=O)c1csc2c(-c3cc(Cl)ccc3OCCn3c(C)nc4cc(C(F)(F)F)cc(C#N)c4c3=O)ccnc12 [compound 1900]
[1]
  IC50: 2700 nM

## Cc1ccc(-c2cc(Cl)ccc2OCCn2c(C)nc3cnc(-c4ccncc4)c(C#N)c3c2=O)c2scc(C(=O)O)c12 [compound 762]
[2]
  IC50: < 50 nM
[3]
  IC50: 33.7 nM

## CCN(c1ncc2nc(C)n(CCOc3ccc(Cl)cc3-c3ccnc4c(C(=O)O)csc34)c(=O)c2c1C#N)C1CCN(CC(F)F)CC1 [compound 1433]
[1]
  IC50: 27.4 nM

## Cc1cc(-c2cc(Cl)ccc2OCCn2c(C)nc3cc(Cl)c(Nc4cncc(F)c4)c(C#N)c3c2=O)c2scc(C(=O)O)c2n1 [compound 962]
[2]
  IC50: < 50 nM
[3]
  IC50: 3.15 nM

## Cc1cc(-c2cc(Cl)ccc2OCCn2c(C)nc3cnc(N4CC(O)C4)c(C#N)c3c2=O)c2scc(C(=O)O)c2n1 [compound 1011]
[2]
  IC50: < 50 nM
[3]
  IC50: 7.15 nM

## Cc1cc(-c2cc(Cl)ccc2OCCn2c(C)nc3cnc(N)c(C#N)c3c2=O)c2scc(C(=O)O)c2n1 [compound 1072]
[2]
  IC50: < 50 nM
[3]
  IC50: 37.2 nM

## Cc1nc2cnc(S(=O)(=O)N3CCN(C)CC3)c(C#N)c2c(=O)n1CCOc1ccc(Cl)cc1-c1ccnc2c(C(=O)O)csc12 [compound 821]
[2]
  IC50: < 50 nM
[3]
  IC50: 14.2 nM

## Cc1cc(-c2cc(Cl)ccc2OCCn2c(C)nc3cc(C(F)(F)F)c(CN(C)C)c(C#N)c3c2=O)c2scc(C(=O)NS(C)(=O)=O)c2n1 [compound 568]
[2]
  IC50: < 50 nM
[3]
  IC50: 14.1 nM

## Cc1cc(-c2cc(Cl)ccc2OCCn2c(C)nc3cc(C(F)(F)F)c(-c4cnc(C)c(C)c4)c(C#N)c3c2=O)c2scc(C(=O)O)c2n1 [compound 389]
[2]
  IC50: < 50 nM
[3]
  IC50: 12.3 nM

## Cc1nc2cc(C(F)(F)F)c(N3CC4(C3)CN(C3CC3)C4)c(C#N)c2c(=O)n1CCOc1ccc(Cl)cc1-c1ccnc2c(C(=O)NS(C)(=O)=O)csc12 [compound 1930]
[1]
  IC50: 4.81 nM

## Cc1cc(-c2c(Cl)cc3nc(C)n(CCOc4ccc(Cl)cc4-c4cc(C)nc5c(C(=O)O)csc45)c(=O)c3c2C#N)ccn1 [compound 393]
[2]
  IC50: < 50 nM
[3]
  IC50: 11.8 nM

## Cc1cc(-c2c(F)cc3nc(C)n(CCOc4ccc(Cl)cc4-c4cc(C)nc5c(C(=O)O)csc45)c(=O)c3c2C#N)ccn1 [compound 778]
[2]
  IC50: < 50 nM
[3]
  IC50: 0.0702 nM

## Cc1cc(-c2cc(Cl)ccc2OCCn2c(C)nc3cnc(N4C[C@H]5C[C@@H](C4)N5C)c(C#N)c3c2=O)c2sc(C)c(C(=O)O)c2n1 [compound 1202]
[2]
  IC50: < 50 nM
[1]
  IC50: 19.7 nM

## C=C(c1ncc2nc(C)n(CCOc3ccc(Cl)cc3-c3cc(C)nc4c(C(=O)O)csc34)c(=O)c2c1C#N)C(F)(F)F [compound 989]
[2]
  IC50: < 50 nM
[3]
  IC50: 19.8 nM

## Cc1ccc(F)c(-c2ncc3cc(C)n(CCOc4ccc(Cl)cc4-c4cc(C)nc5c(C(=O)O)csc45)c(=O)c3c2C#N)n1 [compound 1000]
[2]
  IC50: < 50 nM
[3]
  IC50: 16.7 nM
